Results taken from patent US8802700B2 (Vertex Pharmaceuticals Incorporated, priority 2010, dated 2014).

What follows are compounds tested against T1, ΔF508-CFTR (Homo sapiens, UniProt P13569, DEL508-508) (assay: Membrane potential optical assay (FRET voltage-sensor dyes, VIPR), identification of potentiator compounds). Conditions: Table 3; assay not given.
T1 construct: expressed in transfected cells
Type: cell-based
Summary of the method: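 Potentiator screen measured membrane potential via FRET between CC2-DMPE donor and DiSBAC2(3), read on VIPR II. Compound went in with the first addition of chloride-free gluconate bath; cells were ΔF508-CFTR-expressing NIH3T3 mouse fibroblasts, temperature-corrected at 27 °C for 24 h.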

T1 sequence (P13569 with tags, fused parts or gaps DEL508-508): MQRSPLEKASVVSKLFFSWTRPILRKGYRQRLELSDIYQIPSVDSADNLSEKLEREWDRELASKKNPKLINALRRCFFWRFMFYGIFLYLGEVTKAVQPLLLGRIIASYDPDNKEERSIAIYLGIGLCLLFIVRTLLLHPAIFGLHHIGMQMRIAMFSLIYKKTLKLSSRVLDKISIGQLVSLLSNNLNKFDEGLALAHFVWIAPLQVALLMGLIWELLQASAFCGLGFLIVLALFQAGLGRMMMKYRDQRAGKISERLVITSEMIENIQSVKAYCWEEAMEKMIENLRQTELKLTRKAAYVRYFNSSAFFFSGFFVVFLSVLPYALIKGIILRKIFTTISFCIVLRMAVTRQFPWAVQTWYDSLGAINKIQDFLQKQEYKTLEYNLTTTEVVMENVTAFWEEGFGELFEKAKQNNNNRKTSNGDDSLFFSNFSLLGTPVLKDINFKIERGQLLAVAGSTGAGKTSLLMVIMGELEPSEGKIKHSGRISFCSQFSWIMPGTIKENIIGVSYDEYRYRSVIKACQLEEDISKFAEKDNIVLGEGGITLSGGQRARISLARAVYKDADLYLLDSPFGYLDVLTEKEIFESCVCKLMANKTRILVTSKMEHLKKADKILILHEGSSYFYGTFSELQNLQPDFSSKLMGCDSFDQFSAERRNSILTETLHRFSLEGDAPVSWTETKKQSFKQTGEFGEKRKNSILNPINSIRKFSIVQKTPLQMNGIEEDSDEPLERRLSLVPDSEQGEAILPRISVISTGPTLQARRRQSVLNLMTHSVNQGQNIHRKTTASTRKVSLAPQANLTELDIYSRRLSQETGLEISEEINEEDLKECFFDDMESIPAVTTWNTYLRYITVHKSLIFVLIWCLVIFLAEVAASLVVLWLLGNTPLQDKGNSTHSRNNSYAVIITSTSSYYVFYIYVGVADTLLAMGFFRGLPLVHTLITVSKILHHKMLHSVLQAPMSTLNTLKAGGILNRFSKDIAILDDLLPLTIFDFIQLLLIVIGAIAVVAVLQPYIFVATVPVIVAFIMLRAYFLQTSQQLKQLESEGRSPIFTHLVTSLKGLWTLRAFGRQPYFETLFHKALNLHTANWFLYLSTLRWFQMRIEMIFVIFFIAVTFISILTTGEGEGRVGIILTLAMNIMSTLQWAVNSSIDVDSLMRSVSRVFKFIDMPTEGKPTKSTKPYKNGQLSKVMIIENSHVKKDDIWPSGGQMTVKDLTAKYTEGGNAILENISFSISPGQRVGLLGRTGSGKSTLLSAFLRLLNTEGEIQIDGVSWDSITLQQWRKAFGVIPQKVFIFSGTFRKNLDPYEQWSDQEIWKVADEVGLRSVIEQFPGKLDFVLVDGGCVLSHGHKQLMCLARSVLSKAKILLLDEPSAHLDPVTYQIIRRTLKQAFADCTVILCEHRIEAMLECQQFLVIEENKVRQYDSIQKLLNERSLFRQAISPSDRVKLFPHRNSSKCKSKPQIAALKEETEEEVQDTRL

SMILES | EC50
O=C(Nc1ccccc1-c1ccoc1)c1c[nH]c2ccccc2c1=O [Compound 123, N-[2-(3-furyl)phenyl]-4-oxo-1H-quinoline-3-carboxamide] | < 10 µM
CC(C)c1ccc(NC(=O)c2c[nH]c3ccccc3c2=O)cc1 [Compound 425, N-(4-isopropylphenyl)-4-oxo-1H-quinoline-3-carboxamide] | < 10 µM

Same assay, conditions: Table 3; assay not given; read-out: % Activity (% Efficacy, relative efficacy)

SMILES | Emax
Cc1cccc2[nH]cc(C(=O)Nc3ccc(N4CCC[C@@H]4C)cc3C(F)(F)F)c(=O)c12 [Compound 511, (S)-5-methyl-N-(4-(2-methylpyrrolidin-1-yl)-2-(trifluoromethyl)phenyl)-4-oxo-1,4-dihydroquinoline-3-carboxamide] | 25 to 100%
CC(=O)n1ccc2ccc(NC(=O)c3c[nH]c4ccccc4c3=O)cc21 [Compound 187, N-(1-acetyl-1H-indol-6-yl)-4-oxo-1H-quinoline-3-carboxamide] | 25 to 100%
Cn1ccc2ccc(NC(=O)c3c[nH]c4ccccc4c3=O)cc21 [Compound 169, N-(1-methyl-1H-indol-6-yl)-4-oxo-1H-quinoline-3-carboxamide] | 25 to 100%
O=C(Nc1ccc(C(O)(C(F)(F)F)C(F)(F)F)cc1)c1c[nH]c2ccccc2c1=O [Compound 150, 4-oxo-N-[4-[2,2,2-trifluoro-1-hydroxy-1-(trifluoromethyl)ethyl]phenyl]-1H-quinoline-3-carboxamide] | 25 to 100%
O=C(Nc1ccc(C(F)(F)F)c(O)c1)c1c[nH]c2c(Cl)cccc2c1=O [Compound 716, 8-chloro-N-[3-hydroxy-4-(trifluoromethyl)phenyl]-4-oxo-1H-quinoline-3-carboxamide] | 25 to 100%
O=C(Nc1ccc(F)cn1)c1c[nH]c2ccccc2c1=O [Compound 477, N-(5-fluoro-2-pyridyl)-4-oxo-1H-quinoline-3-carboxamide] | < 25%
O=C(Nc1cccc(O)c1)c1c[nH]c2ccccc2c1=O [Compound 144, N-(3-hydroxyphenyl)-4-oxo-1H-quinoline-3-carboxamide] | 25 to 100%
Cc1cc(C)c(NC(=O)c2c[nH]c3ccccc3c2=O)c(C)c1 [Compound 50, 4-oxo-N-(2,4,6-trimethylphenyl)-1H-quinoline-3-carboxamide] | 25 to 100%
O=C(Nc1ccc2ccn(Cc3ccccc3)c2c1)c1c[nH]c2ccccc2c1=O [Compound 203, N-(1-benzyl-1H-indol-6-yl)-4-oxo-1H-quinoline-3-carboxamide] | 25 to 100%
O=C(Nc1ccc(C(F)(F)F)cc1Cl)c1c[nH]c2cccc(O)c2c1=O [Compound 635, N-[2-chloro-4-(trifluoromethyl)phenyl]-5-hydroxy-4-oxo-1H-quinoline-3-carboxamide] | 25 to 100%
O=C(Nc1cccc(S(=O)(=O)N2CCCCC2)c1)c1c[nH]c2ccccc2c1=O [Compound 442, 4-oxo-N-[3-(1-piperidylsulfonyl)phenyl]-1H-quinoline-3-carboxamide] | < 25%
COc1cccc2[nH]cc(C(=O)Nc3ccc4cc[nH]c4c3)c(=O)c12 [Compound 479, N-(1H-indol-6-yl)-5-methoxy-4-oxo-1H-quinoline-3-carboxamide] | 25 to 100%
COC(=O)C1CCCCN1c1ccc(NC(=O)c2c[nH]c3ccccc3c2=O)c(C(F)(F)F)c1 (stereo not drawn) [Compound 492, methyl 1-[4-[(4-oxo-1H-quinolin-3-yl)carbonylamino]-3-(trifluoromethyl)phenyl]piperidine-2-carboxylate] | > 100%
C[C@H]1CCCN1c1ccc(NC(=O)c2c[nH]c3ccc(F)cc3c2=O)c(C(F)(F)F)c1 [Compound 714, (S)-6-fluoro-N-(4-(2-methylpyrrolidin-1-yl)-2-(trifluoromethyl)phenyl)-4-oxo-1,4-dihydroquinoline-3-carboxamide] | 25 to 100%
O=C(Nc1cc2[nH]ccc2cc1F)c1c[nH]c2ccc(F)cc2c1=O [Compound 254, 6-fluoro-N-(5-fluoro-1H-indol-6-yl)-4-oxo-1H-quinoline-3-carboxamide] | 25 to 100%
CC(C)c1ccc(NC(=O)c2c[nH]c3ccccc3c2=O)cc1 [Compound 425, N-(4-isopropylphenyl)-4-oxo-1H-quinoline-3-carboxamide] | 25 to 100%
O=C(Nc1cc(N2CCCC2)cc(C(F)(F)F)c1)c1c[nH]c2ccccc2c1=O [Compound 593, 4-oxo-N-[3-pyrrolidin-1-yl-5-(trifluoromethyl)phenyl]-1H-quinoline-3-carboxamide] | 25 to 100%
Cc1cccc2[nH]cc(C(=O)Nc3ccc(N4CCCC(C)C4)cc3C(F)(F)F)c(=O)c12 (stereo not drawn) [Compound 643, 5-methyl-N-[4-(3-methyl-1-piperidyl)-2-(trifluoromethyl)phenyl]-4-oxo-1H-quinoline-3-carboxamide] | 25 to 100%
O=C(Nc1ccc2c(c1)OC(F)(F)O2)c1c[nH]c2ccccc2c1=O [Compound 66, N-(2,2-difluorobenzo[1,3]dioxol-5-yl)-4-oxo-1H-quinoline-3-carboxamide] | 25 to 100%
Cc1cccc2[nH]cc(C(=O)Nc3cc4[nH]ccc4cc3C(F)(F)F)c(=O)c12 [Compound 661, 5-methyl-4-oxo-N-[5-(trifluoromethyl)-1H-indol-6-yl]-1H-quinoline-3-carboxamide] | 25 to 100%

The next lines start with the values.

Emax | SMILES
25 to 100% | COc1nc2ccccc2c(OC)c1C(=O)Nc1ccccc1C(C)(C)C [Compound 296, 2,4-dimethoxy-N-(2-tert-butylphenyl)-quinoline-3-carboxamide]
25 to 100% | O=C(Nc1ccccc1)c1c[nH]c2ccccc2c1=O [Compound 215, 4-Oxo-N-phenyl-1H-quinoline-3-carboxamide]
> 100% | COc1ccc2[nH]cc(C(=O)Nc3cc4[nH]ccc4cc3C(C)(C)C)c(=O)c2c1 [Compound 533, 6-methoxy-4-oxo-N-(5-tert-butyl-1H-indol-6-yl)-1H-quinoline-3-carboxamide]
< 25% | O=C(Nc1ccc2ccccc2n1)c1c[nH]c2ccccc2c1=O [Compound 19, 4-oxo-N-(2-quinolyl)-1H-quinoline-3-carboxamide]
25 to 100% | O=C(Nc1cccc2cccnc12)c1c[nH]c2ccccc2c1=O [Compound 241, 4-oxo-N-(8-quinolyl)-1H-quinoline-3-carboxamide]
25 to 100% | O=C(Nc1ccccc1-c1ccoc1)c1c[nH]c2ccccc2c1=O [Compound 123, N-[2-(3-furyl)phenyl]-4-oxo-1H-quinoline-3-carboxamide]
25 to 100% | Cc1ccc(S(=O)(=O)Nc2ccccc2NC(=O)c2c[nH]c3ccccc3c2=O)cc1 [Compound 398, 4-oxo-N-[2-(p-tolylsulfonylamino)phenyl]-1H-quinoline-3-carboxamide]
25 to 100% | O=C(Nc1ccccc1-c1ccc(C(F)(F)F)cc1)c1c[nH]c2ccccc2c1=O [Compound 366, 4-oxo-N-[2-[4-(trifluoromethyl)phenyl]phenyl]-1H-quinoline-3-carboxamide]
< 25% | Cc1cccc2c(=O)c(C(=O)Nc3ccc(C(C)C)cc3C(F)(F)F)c[nH]c12 [Compound 637, N-[4-isopropyl-2-(trifluoromethyl)phenyl]-8-methyl-4-oxo-1H-quinoline-3-carboxamide]
25 to 100% | O=C(Nc1ccc2[nH]ccc2c1)c1c[nH]c2ccccc2c1=O [Compound 294, N-(1H-indol-5-yl)-4-oxo-1H-quinoline-3-carboxamide]
25 to 100% | CCOC(=O)c1cc2cc[nH]c2cc1NC(=O)c1c[nH]c2ccccc2c1=O [Compound 188, 6-[(4-oxo-1H-quinolin-3-yl)carbonylamino]-1H-indole-5-carboxylic acid ethyl ester]
25 to 100% | Cc1cc(C(C)(C)C)c(O)cc1NC(=O)c1c[nH]c2ccc(F)cc2c1=O [Compound 683, 6-fluoro-N-(5-hydroxy-2-methyl-4-tert-butyl-phenyl)-4-oxo-1H-quinoline-3-carboxamide]
25 to 100% | CC(C)(C)c1cc(C(C)(C)C)c(NC(=O)c2c[nH]c3ccccc3c2=O)c(O)c1O [Compound 220, N-(2,3-dihydroxy-4,6-ditert-butyl-phenyl)-4-oxo-1H-quinoline-3-carboxamide]
25 to 100% | O=C(Nc1cc2[nH]ccc2cc1-c1ccccc1)c1c[nH]c2ccccc2c1=O [Compound 158, 4-Oxo-N-(5-phenyl-1H-indol-6-yl)-1H-quinoline-3-carboxamide]
25 to 100% | N#Cc1ccc(-c2ccccc2NC(=O)c2c[nH]c3ccccc3c2=O)s1 [Compound 93, N-[2-(5-cyano-2-thienyl)phenyl]-4-oxo-1H-quinoline-3-carboxamide]
25 to 100% | CCOc1ccccc1-c1ccc(CN)cc1NC(=O)c1c[nH]c2ccccc2c1=O [Compound 163, 4-Oxo-1,4-dihydro-quinoline-3-carboxylic acid (4-aminomethyl-2′-ethoxy-biphenyl-2-yl)-amide]
25 to 100% | COC(=O)Nc1cc(NC(=O)c2c[nH]c3ccccc3c2=O)ccc1C(C)C [Compound 30, [2-isopropyl-5-[(4-oxo-1H-quinolin-3-yl)carbonylamino]phenyl]aminoformic acid methyl ester]
25 to 100% | O=C(Nc1ccccc1-c1ccccn1)c1c[nH]c2ccccc2c1=O [Compound 692, 4-oxo-N-[2-(2-pyridyl)phenyl]-1H-quinoline-3-carboxamide]
25 to 100% | CC(C)(C)c1cc2cc[nH]c2cc1NC(=O)c1c[nH]c2cc(C#N)ccc2c1=O [Compound 558, 7-cyano-4-oxo-N-(5-tert-butyl-1H-indol-6-yl)-1H-quinoline-3-carboxamide]
25 to 100% | O=C(c1ccccc1)c1ccccc1NC(=O)c1c[nH]c2ccccc2c1=O [Compound 252, N-(2-benzoylphenyl)-4-oxo-1H-quinoline-3-carboxamide]
> 100% | CCOc1cccc(-c2ccccc2NC(=O)c2c[nH]c3ccccc3c2=O)c1 [Compound 306, N-[2-(3-ethoxyphenyl)phenyl]-4-oxo-1H-quinoline-3-carboxamide]
< 25% | Cc1cccc2c(=O)c(C(=O)Nc3cc(O)c(C(C)(C)C)cc3C(C)(C)C)c[nH]c12 [Compound 621, N-(5-hydroxy-2,4-ditert-butyl-phenyl)-8-methyl-4-oxo-1H-quinoline-3-carboxamide]
25 to 100% | CN(C(=O)c1c[nH]c2ccccc2c1=O)c1cc(O)c(C(C)(C)C)cc1C(C)(C)C [Compound 337, N-(5-hydroxy-2,4-ditert-butyl-phenyl)-N-methyl-4-oxo-1H-quinoline-3-carboxamide]
